In the NIST ThermoML archive (doi:10.1016/j.jct.2003.09.013):
Where “and” joins values, the source holds several entries; their conditions need not be identical. Equal values may be shown once.

Assay: mn = molality of the nth substance listed, in mol/kg
Conditions: 350 kPa, Liquid; for molar volume: Vibrating tube method; for apparent molar heat capacity: Extra sensitive DSC

O=[N+]([O-])[O-].O=[N+]([O-])[O-].[Pb+2] [lead(II) nitrate] + O
Conditions | apparent molar heat capacity [J/K/mol] | apparent molar volume | molar volume
318.15 K, m1 = 0.01959 | – | 4.413e-05 m3/mol | –
318.15 K, m1 = 0.01983 | – | 4.13e-05 m3/mol | –
318.15 K, m1 = 0.02999 | – | 4.23e-05 m3/mol and 3.71e-05 m3/mol | –
318.15 K, m1 = 0.04862 | – | 4.32e-05 m3/mol | –
318.15 K, m1 = 0.05035 | – | 4.763e-05 m3/mol | –
318.15 K, m1 = 0.1004 | – | 4.49e-05 m3/mol and 4.36e-05 m3/mol | –
318.15 K, m1 = 0.2435 | – | 4.709e-05 m3/mol | –
318.15 K, m1 = 0.392 | – | 4.824e-05 m3/mol | –
318.15 K, m1 = 0.4885 | – | 4.881e-05 m3/mol | 4.881e-05 m3/mol
323.15 K, m1 = 0.392 | 10.5 | – | –
323.15 K, m1 = 0.4885 | 27.8 | – | –
328.15 K, m1 = 0.01959 | – | 4.522e-05 m3/mol | 4.522e-05 m3/mol
328.15 K, m1 = 0.01983 | – | 4.163e-05 m3/mol | 4.163e-05 m3/mol
328.15 K, m1 = 0.02999 | – | 4.215e-05 m3/mol and 3.58e-05 m3/mol | 4.215e-05 m3/mol and 3.58e-05 m3/mol
328.15 K, m1 = 0.04862 | – | 4.365e-05 m3/mol | 4.365e-05 m3/mol
328.15 K, m1 = 0.05035 | – | 4.871e-05 m3/mol | 4.871e-05 m3/mol
328.15 K, m1 = 0.1004 | – | 4.523e-05 m3/mol and 4.39e-05 m3/mol | 4.523e-05 m3/mol and 4.39e-05 m3/mol
328.15 K, m1 = 0.2435 | – | 4.806e-05 m3/mol | 4.806e-05 m3/mol
328.15 K, m1 = 0.392 | 10.3 | 4.911e-05 m3/mol | 4.911e-05 m3/mol
328.15 K, m1 = 0.4885 | 27.3 | 4.978e-05 m3/mol | 4.978e-05 m3/mol
333.15 K, m1 = 0.392 | 10 | – | –
333.15 K, m1 = 0.4885 | 26.8 | – | –
338.15 K, m1 = 0.01959 | – | 4.5e-05 m3/mol | 4.5e-05 m3/mol
338.15 K, m1 = 0.01983 | – | 4.114e-05 m3/mol | 4.114e-05 m3/mol
338.15 K, m1 = 0.02999 | – | 4.265e-05 m3/mol and 3.58e-05 m3/mol | 4.265e-05 m3/mol and 3.58e-05 m3/mol
338.15 K, m1 = 0.04862 | – | 4.42e-05 m3/mol | 4.42e-05 m3/mol
338.15 K, m1 = 0.05035 | – | 4.942e-05 m3/mol | 4.942e-05 m3/mol
338.15 K, m1 = 0.1004 | – | 4.599e-05 m3/mol and 4.45e-05 m3/mol | 4.599e-05 m3/mol and 4.45e-05 m3/mol
338.15 K, m1 = 0.2435 | – | 4.89e-05 m3/mol | 4.89e-05 m3/mol
338.15 K, m1 = 0.392 | 9.1 | 4.981e-05 m3/mol | 4.981e-05 m3/mol
338.15 K, m1 = 0.4885 | 25.9 | 5.059e-05 m3/mol | 5.059e-05 m3/mol
343.15 K, m1 = 0.392 | 8 | – | –
343.15 K, m1 = 0.4885 | 24.7 | – | –
348.15 K, m1 = 0.01959 | – | 4.33e-05 m3/mol | 4.33e-05 m3/mol
348.15 K, m1 = 0.02999 | – | 3.57e-05 m3/mol | 3.57e-05 m3/mol
348.15 K, m1 = 0.05035 | – | 4.93e-05 m3/mol | 4.93e-05 m3/mol
348.15 K, m1 = 0.1004 | – | 4.662e-05 m3/mol and 4.47e-05 m3/mol | 4.662e-05 m3/mol and 4.47e-05 m3/mol
348.15 K, m1 = 0.2435 | – | 4.92e-05 m3/mol | 4.92e-05 m3/mol
348.15 K, m1 = 0.392 | 6.7 | 5.034e-05 m3/mol | 5.034e-05 m3/mol
348.15 K, m1 = 0.4885 | 23.3 | 5.112e-05 m3/mol | 5.112e-05 m3/mol
353.15 K, m1 = 0.392 | 5.2 | – | –
353.15 K, m1 = 0.4885 | 22 | – | –
358.15 K, m1 = 0.01959 | – | 4.397e-05 m3/mol | 4.397e-05 m3/mol
358.15 K, m1 = 0.02999 | – | 3.55e-05 m3/mol | 3.55e-05 m3/mol
358.15 K, m1 = 0.05035 | – | 4.866e-05 m3/mol | 4.866e-05 m3/mol
358.15 K, m1 = 0.1004 | – | 4.48e-05 m3/mol and 4.513e-05 m3/mol | 4.48e-05 m3/mol and 4.513e-05 m3/mol
358.15 K, m1 = 0.2435 | – | 4.929e-05 m3/mol | 4.929e-05 m3/mol
358.15 K, m1 = 0.392 | 3.8 | 5.016e-05 m3/mol | 5.016e-05 m3/mol
358.15 K, m1 = 0.4885 | 20.5 | 5.11e-05 m3/mol | 5.11e-05 m3/mol
363.15 K, m1 = 0.392 | 2.1 | – | –
363.15 K, m1 = 0.4885 | 18.8 | – | –
368.15 K, m1 = 0.01959 | – | 4.451e-05 m3/mol | 4.451e-05 m3/mol
368.15 K, m1 = 0.02999 | – | 3.49e-05 m3/mol | 3.49e-05 m3/mol
368.15 K, m1 = 0.05035 | – | 4.751e-05 m3/mol | 4.751e-05 m3/mol
368.15 K, m1 = 0.1004 | – | 4.02e-05 m3/mol and 4.44e-05 m3/mol | 4.02e-05 m3/mol and 4.44e-05 m3/mol
368.15 K, m1 = 0.2435 | – | 4.902e-05 m3/mol | 4.902e-05 m3/mol
368.15 K, m1 = 0.392 | – | 4.883e-05 m3/mol | 4.883e-05 m3/mol
368.15 K, m1 = 0.4885 | 16.9 | 5.055e-05 m3/mol | 5.055e-05 m3/mol
373.15 K, m1 = 0.4885 | 14.8 | – | –
378.15 K, m1 = 0.4885 | 12.1 | – | –
383.15 K, m1 = 0.4885 | 9.5 | – | –
388.15 K, m1 = 0.4885 | 6.8 | – | –
393.15 K, m1 = 0.4885 | 3.2 | – | –
